In brackets after ≈: the same amount, converted by molar mass. Non-standard residues stand in square brackets, D forms with d. Residues, ends and D or L forms follow the SMILES beside them.
Tests used:
[1] = test system: Shewanella sp.; assay type: cell-based; settings: 48 h
Outline: (§1)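 Broth microdilution MIC in MHB (0‰) or MHB with artificial seawater (25‰), with or without acetic acid/BSA diluent, at about 5 × 10^5 CFU mL^-1 and peptide 0.125-65 µg mL^-1. Plates incubated at 25 °C and read visually; MIC is the lowest concentration without growth at 48 h, in duplicate.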

[2] = test system: Vibrio rotiferianus; assay type: cell-based; settings: 48 h
Outline: as §1

[3] = test system: Vibrio scophthalmi; assay type: cell-based; settings: 48 h
Outline: as §1

[4] = test system: Escherichia coli (ATCC 25922); assay type: cell-based; settings: ATCC 25922, 48 h
Outline: as §1

[5] = test system: Vibrio harveyi; assay type: cell-based; settings: 48 h
Outline: as §1

[6] = test system: Vibrio harveyi (ATCC 35084); assay type: cell-based; settings: ATCC 35084, 48 h
Outline: as §1

[7] = test system: Vibrio alginolyticus; assay type: cell-based; settings: 48 h
Outline: as §1

[8] = test system: Shewanella sp.; assay type: cell-based; settings: 48 h; remark: listed apart in the source
Outline: (§2)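 MIC, twofold broth microdilution in polypropylene plates; peptides 0.125–65 µg mL^−1; ~5 × 10^5 CFU mL^−1; MHB at 0‰ or 25‰ salinity. Acetic acid/BSA diluent where peptides precipitated. Duplicates. T. discolor: 1 MHB:7 seawater (25‰) only.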

[9] = test system: Vibrio rotiferianus; assay type: cell-based; settings: 48 h; remark: listed apart in the source
Outline: as §2

[10] = test system: Vibrio scophthalmi; assay type: cell-based; settings: 48 h; remark: listed apart in the source
Outline: as §2

[11] = test system: Pseudoalteromonas sp.; assay type: cell-based; settings: 48 h
Outline: as §2

[12] = test system: Tenacibaculum discolor; assay type: cell-based; settings: 48 h
Outline: as §2

[13] = test system: Escherichia coli (ATCC 25922); assay type: cell-based; settings: ATCC 25922, 48 h; remark: listed apart in the source
Outline: as §2

[14] = test system: Vibrio harveyi; assay type: cell-based; settings: 48 h; remark: listed apart in the source
Outline: as §2

[15] = test system: Vibrio harveyi (ATCC 35084); assay type: cell-based; settings: ATCC 35084, 48 h; remark: listed apart in the source
Outline: as §2

[16] = test system: Vibrio alginolyticus; assay type: cell-based; settings: 48 h; remark: listed apart in the source
Outline: as §2

[17] = test system: MRSA and P. aeruginosa bacterial infections; settings: MRSA and P. aeruginosa infections in mice and nematodes, respectively; ref [23], [64], [65]; cited from earlier work
Method: The MIC assay under high salt concentration identified these peptides as being effective against V. rotiferianus and T. discolor at a high peptide concentration (65 µg mL^−1), however, the two bacterial species were not identified in the control rotifer culture, and the reduction of their presence cannot be quantified. In relation to other AMP research, the majority of AMPs are currently teste ...

[18] = Test whether the AMPs precipitated in MHB and required acetic acid adjustments; assay type: physicochemical; settings: MIC two or more dilutions higher without acetic acid than with acetic acid = requires acetic acid adjustments; MHB 0‰
Method: The protocol was followed to determine the minimum inhibitory concentration (MIC) of the selected peptides. Two MIC assays were performed, firstly to determine whether each peptide precipitated in MHB and thereby required acetic acid adjustments (supplementary materials) and secondly, to determine the antimicrobial activity of each peptide in artificial seawater (25‰). Peptide stock solutions (1.3 mg mL^−1) were made by diluting the peptides in sterile deionised water. MHB was made with deionised water to reach a concentration of approaching 0‰ and artificial sea salts (Sigma-Aldrich® S9883) to reach a salinity of 25‰.
A broth microdilution protocol was followed to test whether the AMPs precipitated in MHB. The isolates T. discolor and Pseudoalteromonas were excluded from this assay because they required marine salts for growth. The peptides HHC10 and HHC36 previously required acetic acid adjustments according to [63] and were not trialled in this assay. To test if peptides required acetic acid, each peptide was diluted 1:2 in acetic acid (0.02% acetic acid w/v, containing 0.4% BSA) solution. […] The 96-well plates were incubated at 25 °C and read at 24 and 48 hours. The MIC was visually determined using a Sensititre™ Vizion™ Digital MIC Viewing System (Thermo Scientific™), and the lowest AMP concentration that had no bacterial growth was recorded as the MIC after 48 hours. […]

With CC[C@@H](C)[C@@H](NC(=O)[C@@H](C)NC(=O)[C@@H](CCCNC(=N)N)NC(=O)[C@@H](Cc1c[nH]c2ccccc12)NC(=O)[C@@H](CCC(N)=O)NC(=O)[C@H](N)C(C)C)C(=O)N[C@H](CCCNC(=N)N)C(=O)N[C@@H](C(=O)N[C@H](CCCNC(=N)N)C(=O)N[C@@H](C(=O)N[C@@H](C(=O)N[C@H](CCCNC(=N)N)C(N)=O)[C@H](C)CC)C(C)C)C(C)C [DJK5] (H-[dV][dQ][dW][dR][dA][dI][dR][dV][dR][dV][dI][dR]-NH2; N-terminus and C-terminus assumed) the “MIC Shewanella sp., Acetic” value [1] was 1.02 µg/mL (≈ 0.658 µM), the “MIC Shewanella sp., No acetic” value [1] was 1.02 µg/mL (≈ 0.658 µM) and the “MIC V. rotiferianus, Acetic” value [2] was 1.02 µg/mL (≈ 0.658 µM). For the same molecule, the “MIC V. rotiferianus, No acetic” value [2] was 1.02 µg/mL (≈ 0.658 µM), the “MIC V. scophthalmi, Acetic” value [3] was 0.51 µg/mL (≈ 0.329 µM) and the “MIC V. scophthalmi, No acetic” value [3] was 0.51 µg/mL (≈ 0.329 µM). The “MIC E. coli ATCC 25922, Acetic” value [4] was 4.06 µg/mL (≈ 2.62 µM), the “MIC E. coli ATCC 25922, No acetic” value [4] was 8.13 µg/mL (≈ 5.24 µM) and the “MIC V. harveyi, Acetic” value [5] was 2.03 µg/mL (≈ 1.31 µM). For the same molecule, the “MIC V. harveyi, No acetic” value [5] was 4.06 µg/mL (≈ 2.62 µM), the “MIC V. harveyi ATCC 35084, Acetic” value [6] was 4.06 µg/mL (≈ 2.62 µM) and the “MIC V. harveyi ATCC 35084, No acetic” value [6] was 2.03 µg/mL (≈ 1.31 µM). The “MIC V. alginolyticus, Acetic” value [7] was 4.06 µg/mL (≈ 2.62 µM), the “MIC V. alginolyticus, No acetic” value [7] was 4.06 µg/mL (≈ 2.62 µM) and the “MIC Shewanella sp., salinity 0‰” value [8] was 2.03 µg/mL (≈ 1.31 µM). The “MIC Shewanella sp., salinity 25‰” value [8] was > 65 µg/mL, the “MIC V. rotiferianus, salinity 0‰” value [9] was 1.02 µg/mL (≈ 0.658 µM) and the “MIC V. rotiferianus, salinity 25‰” value [9] was > 65 µg/mL. For the same molecule, the “MIC V. scophthalmi, salinity 0‰” value [10] was 0.51 µg/mL (≈ 0.329 µM), the “MIC V. scophthalmi, salinity 25‰” value [10] was > 65 µg/mL and the “MIC Pseudoalteromonas sp., salinity 25‰” value [11] was > 65 µg/mL. For the same molecule, the “MIC T. discolor, salinity 25‰” value [12] was > 65 µg/mL, the “MIC E. coli ATCC 25922, salinity 0‰” value [13] was 2.03 µg/mL (≈ 1.31 µM) and the “MIC E. coli ATCC 25922, salinity 25‰” value [13] was > 65 µg/mL. For the same molecule, the “MIC V. harveyi, salinity 0‰” value [14] was 4.06 µg/mL (≈ 2.62 µM), the “MIC V. harveyi, salinity 25‰” value [14] was > 65 µg/mL and the “MIC V. harveyi ATCC 35084, salinity 0‰” value [15] was 2.03 µg/mL (≈ 1.31 µM). The “MIC V. harveyi ATCC 35084, salinity 25‰” value [15] was > 65 µg/mL, the “MIC V. alginolyticus, salinity 0‰” value [16] was 4.06 µg/mL (≈ 2.62 µM) and the “MIC V. alginolyticus, salinity 25‰” value [16] was > 65 µg/mL. The “reduction of bacterial infections in terrestrial organisms” value [17] was “successfully reduced” and the “requirement for acetic acid (precipitation in MHB)” value [18] was “did not”.
